One assay relates to AKT. The assay can be described thus: Inhibition of IGF-I stimulated AKT phosphorylation (Ser473) in Rh1 cells, Western blot. Type of assay: cell-based, human. The conditions noted are these: for Inhibition (phosphorylation of AKT at Ser 473): 5 μM, 1 hour, serum starved Rh1 cells, IGF-I 10 ng/ml 10 minutes, average of two experiments; for inhibition of cellular AKT activation: at the concentrations examined in this assay (1-5 μM). As to the method: Cell lines and growth conditions. The human cell lines Rh1, Rh18, and Rh30 (ATCC Deposit # CRL 2061) have been described, e.g., by Hazelton et al. Cancer Res 1987;47:4501-4507 and Hosoi et al. Cancer Res. 1999;59:886-894. Rh1, Rh18 and Rh30 cells can each be grown in antibiotic free RPMI-1640 medium (available from BioWhittaker, Walkersville, Md.), supplemented with 10% fetal bovine serum (available from HyClone Laboratories, Logan, Utah) and 2 mM L-glutamine (available from BioWhittaker, Walkersville, Md.) at 37° C. in an atmosphere of 5% CO2. For serum free experiments, cells can be cultured in modified N2E (MN2E) medium (DMEM/F-12, 1:1 mixture) (Sigma, St. Louis, Mo.) supplemented with 1 μg/ml human holo transferrin, 30 nM sodium selenite, 20 nM progesterone, 100 μM putrescine, 30 nM vitamin E phosphate, and 50 μM ethanolamine. Cells in MN2E medium containing 5 μg/ml bovine fibronectin (available from Sigma, St. Louis, Mo.) are preferably plated, and allowed to attach overnight at 37° C. in a humidified, 5% CO2 atmosphere.
Cellular screening for inhibitors. Rh1, Rh18 and Rh30 cells can each be seeded at a density of 4×10^6/10-cm plate in serum-free medium for overnight attachment. The cells can then be exposed to 0.1% DMSO or to a test compound (for example, a phenoxazine or acridone compound) for one hour, then stimulated with Insulin-like growth factor-I (IGF-I) (10 ng/ml) for 10 minutes.
Western blot analysis. Cells are rapidly washed with ice-cold phosphate-buffered saline (PBS), placed on ice, and lysed in mammalian protein extraction reagent (M-PER; available from Pierce, Rockford, Ill.) containing one Complete™ mini protease inhibitor tablet (available from Boehringer Mannheim, Mannheim, Germany), 1 mM phenylmethylsulfonyl fluoride, 1 mM Na3VO4 and 1 mM NaF. Cellular debris is pelleted by centrifugation at 17,500×g for 10 minutes at 4° C. The protein concentration of the supernatants is measured by the bicinchoninic acid assay (e.g., using the BCA™ Protein Assay Kit, Pierce, Rockford, Ill., catalog number 23225 or 23227) using bovine serum albumin as the standard.
For the analysis of AKT, ERK-1/2, mTOR, p70S6 kinase, ribosomal protein S6 (rpS6 or S6), and glycogen synthase kinase 3 (GSK-3), equivalent amounts of protein can be separated on a 12% SDS-polyacrylamide gel (available from BioRad, Hercules, Calif.) by electrophoresis and subsequently transferred to a nitrocellulose membrane (also available from BioRad). After a 1 hour incubation in 1×TBS containing 0.05% Tween 20 and 5% blocking reagent (skim milk) (available from Upstate Biotechnology, Lake Placid, N.Y.) at room temperature, the wet nitrocellulose membranes are incubated with appropriate antibodies (available from Cell Signaling Technology, Beverly, Mass.): rabbit polyclonal antiserum specific for the phosphorylated Ser473 or Thr308 of AKT (dilution 1:1000); rabbit polyclonal antiserum specific for phosphorylated Thr202/Tyr204 of ERK-1/2 (dilution 1:1000); rabbit polyclonal antiserum specific for phosphorylated Ser2448 or Ser2481 of mTOR (dilution 1:1000); rabbit polyclonal antiserum specific for phosphorylated Thr389 of p70S6 kinase (dilution 1:4000); rabbit polyclonal antiserum specific for phosphorylated Ser235/236 of rpS6 (dilution 1:1000); or rabbit polyclonal antiserum specific for phosphorylated Ser21/9 of GSK-3α/β (dilution 1:1000). Horseradish peroxidase-conjugated goat anti-rabbit IgG antibody (dilution 1:10,000) can be used as the secondary antibody. Immunoreactive protein can be visualized using Renaissance chemiluminescence reagent (available from Life Science Products Inc., Boston, Mass.).
For these assays, Rh1 cells are seeded in serum-free medium for overnight attachment. The serum starved Rh1 cells are then exposed to 1-5 μM of a compound in Table I for 1 hour before stimulating with IGF-I (10 ng/ml) for 10 minutes. […]
(In western blotting, separated proteins are transferred to a membrane and probed.)

For assay [1], the system named is Rh1, Rh18 and/or Rh30 cells. The assay can be described thus: Determination of apoptosis, cell line not specified for the result. Type of assay: cell-based, human. The source says:
Determination of apoptosis.
Similar experiments can be performed using compounds that are relatively poor inhibitors of AKT in vitro but, preferably, are chemically similar to the phenoxazine or other compounds tested that are effective inhibitors of AKT. For example, the apoptosis of cells in response to the phenoxazine compound 12B or 20B, which are relatively poor inhibitors of AKT in vitro, can be compared to apoptosis of cells in response to the chemically similar compounds 10B and/or 15B, which are effective AKT inhibitors. In this way, a skilled practitioner can evaluate whether apoptosis observed in response to an effective AKT inhibitor (e.g., apoptosis observed in response to compound 10B or 15B) is due to a general toxic effect rather than AKT inhibition.

For `O=C(CN1CCCCC1)N1c2ccccc2Oc2ccc(Cl)cc21` [Compound 19B, 10-(N-piperidinoacetyl)-2-chlorophenoxazine], the “Inhibition (phosphorylation of AKT at Ser 473)” value in the assay on AKT was “−−− (−−− <25% inhibition)”.

Turning to `OCCN(CCO)CCCCN1c2ccccc2Oc2ccccc21` [Compound 11A, 10-[4′-[N-bis(hydroxyethyl)amino]-butyl]phenoxazine], in the assay with AKT, the “Inhibition (phosphorylation of AKT at Ser 473)” value is on record as “+++ (+++ ≈ 75% inhibition)” and the “inhibition of cellular AKT activation” value was “minimal inhibition”.

As for `ClCCCCN1c2ccccc2Oc2ccc(Cl)cc21` [Compound 9B, 10-(4′-chlorobutyl)-2-chlorophenoxazine], in the assay on AKT, the “Inhibition (phosphorylation of AKT at Ser 473)” value was “−−− (−−− <25% inhibition)”.

Take `CCN(CC)CCCN1c2ccccc2Oc2ccc(Cl)cc21` [Compound 3B, 10-[3′-(N-diethylamino)-propyl]-2-chlorophenoxazine]: the “Inhibition (phosphorylation of AKT at Ser 473)” value in the assay with AKT is “++ (++ ≈ 50% inhibition)”.

As for `Clc1ccc2c(c1)N(CCCCN1CCOCC1)c1ccccc1O2` [Compound 12B, 10-(4′-N-morpholinobutyl)-2-chlorophenoxazine], in assay [1], the “induction of apoptosis” value is listed as “neither the compound 12B or 20B”. Also, the “Inhibition (phosphorylation of AKT at Ser 473)” value in the assay on AKT is reported as “−−− (−−− <25% inhibition)”.

With `OCCN(CCO)CCCCN1c2ccccc2Oc2ccc(C(F)(F)F)cc21` [Compound 11C, 10-[4′-[N-bis(hydroxyethyl)amino]butyl]-2-trifluoromethyl phenoxazine], in the assay on AKT, the “Inhibition (phosphorylation of AKT at Ser 473)” value is reported as “+++ (+++ ≈ 75% inhibition)” and the “inhibition of cellular AKT activation” value was “minimal inhibition”.

“10-(3′-N-piperidinopropyl)-2-chlorophenoxazine [Compound 6B]”: in the assay on AKT, the “Inhibition (phosphorylation of AKT at Ser 473)” value is listed as “++ (++ ≈ 50% inhibition)”.

Consider `Clc1ccc2c(c1)Nc1ccccc1O2` [Compound 1B, 2-chlorophenoxazine], for which, in the assay with AKT, the “Inhibition (phosphorylation of AKT at Ser 473)” value is recorded as “+ (+ ≈ 25% inhibition)”.

For the molecule “10-(4′-N-pyrrolidinobutyl)-2-chlorophenoxazine [Compound 14B]”, the “induction of apoptosis” value in assay [1] is recorded as “significant increase in the proportion of apoptotic cells”. Besides, in the assay with AKT, the “Inhibition (phosphorylation of AKT at Ser 473)” value is recorded as “+++ (+++ ≈ 75% inhibition)”.

For the molecule “10-(3′-N-pyrrolidinopropyl)-2-chlorophenoxazine [Compound 7B]”, the “Inhibition (phosphorylation of AKT at Ser 473)” value in the assay with AKT was “+++ (+++ ≈ 75% inhibition)”.

Take `O=C(CN1CCOCC1)N1c2ccccc2Oc2ccc(Cl)cc21` [Compound 18B, 10-(N-morpholinoacetyl)-2-chlorophenoxazine]: the “Inhibition (phosphorylation of AKT at Ser 473)” value with AKT is listed as “−−− (−−− <25% inhibition)”.

For the molecule “10-(4′-N-pyrrolidinobutyl)-phenoxazine [Compound 14A]”, in the assay with AKT, the “Inhibition (phosphorylation of AKT at Ser 473)” value was “+++ (+++ ≈ 75% inhibition)” and the “inhibition of cellular AKT activation” value is “minimal inhibition”.

“10-(4′-N-piperidinobutyl)-2-trifluoromethylphenoxazine [Compound 13C]”: in the assay on AKT, the “Inhibition (phosphorylation of AKT at Ser 473)” value is “+++ (+++ ≈ 75% inhibition)” and the “inhibition of cellular AKT activation” value is reported as “minimal inhibition”.

For the molecule “10-(4′-N-piperidinobutyl)-2-chlorophenoxazine [Compound 13B]”, the “induction of apoptosis” value in assay [1] is on record as “significant increase in the proportion of apoptotic cells”. Further, the “Inhibition (phosphorylation of AKT at Ser 473)” value in the assay with AKT was “+++ (+++ ≈ 75% inhibition)”.

Take `O=C(CCl)N1c2ccccc2Oc2ccc(Cl)cc21` [Compound 16B, 10-(chloroacetyl)-2-chlorophenoxazine]: the “Inhibition (phosphorylation of AKT at Ser 473)” value in the assay with AKT is reported as “−−− (−−− <25% inhibition)”.

Turning to `OCCN(CCO)CCCN1c2ccccc2Oc2ccc(Cl)cc21` [Compound 4B, 10-[3′-[N-bis(hydroxyethyl)amino]propyl]-2-chlorophenoxazine], in the assay on AKT, the “Inhibition (phosphorylation of AKT at Ser 473)” value is listed as “++ (++ ≈ 50% inhibition)”.

For `c1ccc2c(c1)Oc1ccccc1N2CCCN1CCCC1` [Compound 8A, 10-(3′-N-pyrrolidinopropyl)-phenoxazine], in the assay on AKT, the “Inhibition (phosphorylation of AKT at Ser 473)” value is “++ (++ ≈ 50% inhibition)” and the “inhibition of cellular AKT activation” value was “minimal inhibition”.

For `c1ccc(CNCCCN2c3ccccc3Oc3ccccc32)cc1` [Compound 22A, 10-(3′-N-benzylaminopropyl)-phenoxazine], in the assay on AKT, the “Inhibition (phosphorylation of AKT at Ser 473)” value is listed as “+++ (+++ ≈ 75% inhibition)” and the “inhibition of cellular AKT activation” value is listed as “minimal inhibition”.

In the case of `OCCN(CCO)CCCN1c2ccccc2Oc2ccccc21` [Compound 4A, 10-[3′-[N-bis(hydroxyethyl)amino]propyl]phenoxazine], in the assay with AKT, the “Inhibition (phosphorylation of AKT at Ser 473)” value was “++ (++ ≈ 50% inhibition)” and the “inhibition of cellular AKT activation” value was “minimal inhibition”.

Consider `FC(F)(F)c1ccc2c(c1)N(CCCN1CCOCC1)c1ccccc1O2` [Compound 5C, 10-(3′-N-morpholinopropyl)-2-trifluoromethylphenoxazine], for which, in the assay on AKT, the “Inhibition (phosphorylation of AKT at Ser 473)” value is given as “−−− (−−− <25% inhibition)” and the “inhibition of cellular AKT activation” value is listed as “minimal inhibition”.

As to `OCCN(CCO)CCCCN1c2ccccc2Oc2ccc(Cl)cc21` [Compound 11B, 10-[4′-[N-bis(hydroxyethyl)amino]butyl]-2-chlorophenoxazine], the “induction of apoptosis” value in assay [1] was “significant increase in the proportion of apoptotic cells”. Moreover, the “Inhibition (phosphorylation of AKT at Ser 473)” value in the assay on AKT is “+++ (+++ ≈ 75% inhibition)”.

Regarding `Clc1ccc2c(c1)N(CCCN1CCOCC1)c1ccccc1O2` [Compound 5B, 10-(3′-N-morpholinopropyl)-2-chlorophenoxazine], the “Inhibition (phosphorylation of AKT at Ser 473)” value in the assay with AKT is “−−− (−−− <25% inhibition)”.

Turning to “10-[4′-[(β-hydroxyethyl piperazino]butyl]-phenoxazine [Compound 15A]”, in the assay on AKT, the “Inhibition (phosphorylation of AKT at Ser 473)” value is “+++ (+++ ≈ 75% inhibition)” and the “inhibition of cellular AKT activation” value is reported as “minimal inhibition”.

Consider `ClCCCN1c2ccccc2Oc2ccc(Cl)cc21` [Compound 2B, 10-(3′-chloropropyl)-2-chlorophenoxazine], for which, in the assay with AKT, the “Inhibition (phosphorylation of AKT at Ser 473)” value is reported as “−−− (−−− <25% inhibition)”.

Regarding `CCN(CC)CC(=O)N1c2ccccc2Oc2ccc(Cl)cc21` [Compound 17B, 10-[(N-diethylamino)acetyl]-2-chlorophenoxazine], the “Inhibition (phosphorylation of AKT at Ser 473)” value with AKT is given as “−−− (−−− <25% inhibition)”.

Consider “10-[[(β-hydroxyethyl) piperazino]acetyl]-2-chlorophenoxazine [Compound 21B]”, for which the “Inhibition (phosphorylation of AKT at Ser 473)” value in the assay on AKT is “−−− (−−− <25% inhibition)”.

Source of the values: patent US20060241108A1, “Substituted phenoxazines and acridones as inhibitors of AKT” (St. Jude Children's Research Hospital, priority 2005, published 2006).
